Experimental data published in patent publication US20090130064A1, “DIFFERENTIATION OF STEM CELLS AND STABILIZATION OF PHENOTYPICAL PROPERTIES OF PRIMARY CELLS” (priority 2004, published 2009).

Key:
[1] = tested on: CYP 2B; assay: Western blot of CYP 2B in primary rat hepatocytes; format: cell-based; conditions: 50 μM
From the text: Male outbred Sprague-Dawley rats (200-300 g, Iffa Credo, Brussels, Belgium) were kept under controlled environmental conditions (12-hr light-dark cycle) and fed a standard diet (Animalabo A04, water ad libitum). Hepatocytes were isolated by a two-step collagenase perfusion as described (De Smet et al. In ‘Methods in Molecular Biology, Vol. 107: Cytochrome P450 Protocols’, Philips I R and Shephard E A, eds., pp 295-301, Humana Press, Totowa, 1998). Cell viability was >90% as determined by trypan blue exclusion. Cells (0.4×10^5 cells/cm^2) were plated in MEM/M199 (3:1), containing BSA (1 mg/ml), bovine insulin (10 μg/ml), L-glutamine (2 mM), FBS (10% v/v) and antibiotics (7.3 IU/ml benzyl penicillin, 50 μg/ml streptomycin sulphate, 50 μg/ml kanamycin monosulphate and 10 μg/ml sodium ampicillin). Four hours after plating, serum-containing medium was removed and fresh serum-free medium was added to the cultures. Culture medium was refreshed daily. EGF (50 ng/ml) was added 4 hours after plating. A 100 mM stock solution of 4-Me2N-BAVAH was prepared in ethanol.

[2] = tested on: primary rat hepatocytes; assay: Biotransformation in hepatocyte culture by HPLC with ESI-MS/UV; format: in vitro ADME; conditions: 50 μM; after 20 hours
Procedure: Cells were cultured for 24 hours in the presence of EGF, alone or in combination with 4-Me2N-BAVAH; culture media were renewed and the expression of p21 was subsequently analyzed at short time intervals (0.5, 1, 6 and 24 hours) (FIG. 18B). In untreated EGF-stimulated hepatocytes, cyclin D1 and p21 proteins were induced 0.5 hour after medium renewal. A maximum was reached 24 hours later, namely after 48 hours of culture. As expected, no cyclin D1 and p21 proteins could be detected in 4-Me2N-BAVAH-treated cells, not even after short exposure periods (FIG. 18B). In addition, we quantified the biotransformation rate of 4-Me2N-BAVAH using high-performance liquid chromatography (HPLC) combined with simultaneous electrospray ionization mass spectrometric (ESI-MS)/UV detection. […] These findings clearly indicate that 4-Me2N-BAVAH interferes with the mitogenic effects of EGF resulting in a failure to induce cyclin D1 and p21 expression.

[3] = tested on: primary rat hepatocytes; assay: FACS analysis of cell cycle distribution of primary rat hepatocytes; format: cell-based; conditions: 50 μM + EGF; 72 hours
Procedure: Ploidy of hepatocyte nuclei was measured by FACS analysis. After hypotonic swelling of the cells with 0.1% sodium citrate, cellular DNA was stained with propidium iodide (50 μg/ml) and analyzed on a FACStar^Plus (Beckton Dickinson Biosciences, San José, Calif., USA).

[4] = tested on: histone H4; assay: Acetylated histone H4 by immunocytochemistry in rat hepatocytes; format: cell-based; conditions: 1 μM TSA
Procedure: (§1) In all conditions, the hepatocytes were cultivated as a monolayer configuration, and samples were taken at days 1, 4 and 7 (D1, D4, D7) of the cultivation time.
(§2) Hepatocytes were fixed with cold ethanol, peremeabilised with Triton X-100 (Sigma) and blocked with non-fatty milk. Following incubation with appropriate concentrations of primary and secondary antibodies (FITC or TRITC labeled), samples were mounted with DAPI-containing Vectashield (Vector Laboratories). Detection was performed by fluorescence microscopy (Leica DMR/XA).

[5] = tested on: Cx43; assay: Cx43 expression and localization (immunoblotting, immunocytochemistry) in rat hepatocytes; format: cell-based; conditions: 1 μM TSA
Procedure: as §1
Proteins (25 or 50 μg) were resolved on SDS-PAGE (7.5, 10 or 12%) and blotted afterwards onto nitrocellulose membranes. After blocking with non-fatty milk, membranes were incubated with appropriate concentrations of primary and secondary antibodies (HRP labeled). Proteins were detected using the ECL detection system (Amersham Biosciences). Primary antibodies: Cx26 (Zymed, 1/250), Cx32 (Sigma, 1/500), Cx43 (Zymed, 1/100).
as §2

[6] = tested on: CYP 2B1/2; assay: CYP 2B1/2 activity (penthoxyresorufin conversion) in cultured rat hepatocytes; format: cell-based
From the text: Hepatocytes were isolated from male Sprague-Dawley rats by a two-step collagenase perfusion as described (De Smet et al. In ‘Methods in Molecular Biology, Vol. 107: Cytochrome P450 Protocols’, Philips IR and Shephard E A, eds., p.p 295-301, Humana Press, Totowa, 1998). Hepatocytes were cultivated in monolayer cultures with Willam's E Medium (WE) for 7 days. […] The maintenance of differentiation characteristics was studied after 2, 4, and 7 days (D2, D4, D7) of culture.
Phase I biotransformation was assessed by means of activity measurements of the microsomal cytochrome P450 (CYP) 1A1 and 2B1/2 iso-enzymes, using standard techniques known in the art (i.e., measuring conversion of ethoxyresorufin into hydroxyresorufin for CYP 1A1 and conversion of penthoxyresorufin to hydroxyresorufin for CYP 2B1/2) (Burke et al. Drug Metab Dispos 2:583-588, 1974). Microsomes were prepared from freshly isolated and hepatocytes cultured for 7 days according to Hales et al. (Biochem Pharmacol 26:555-556, 1977).

Compound | expression of CYP 2B [1] | metabolites detected in culture [2] | number of cells in G2/M [3] | proportion of cells in G0/G1 [3] | acetylation of histone H4 [4] | expression of Cx43 [5] | localization of Cx43 [5] | activity of CYP 2B1/2 versus EtOH-treated controls ([6]; 1 μM TSA starting at 0 h or 4 h, day 4 and 7) | CYP 2B1 Activity ([6]; 7-day conventionally cultured adult rat hepatocytes, 1 μm TSA)
CN(C)c1ccc(C(=O)NCCCCC(=O)NO)cc1 [4-Me2N-BAVAH, 5-(4-dimethylaminobenzoyl)-aminovaleric acid hydroxamide] | Increased Expression | No metabolites of the compound could be detected | significantly lower | significantly higher proportion | – | – | – | – | –
CC(C=CC(=O)NO)=CC(C)C(=O)c1ccc(N(C)C)cc1 (stereo not drawn) [TSA] | – | – | – | – | hyperacetylation | induces the expressions | cytosolic localization | significantly higher | 4.1 ± 0.7 pmol resorufin/minute mg microsomal protein
